Values quoted from earlier work as cited in US20020038007A1, “Method of finding agonist and antagonist to human 11cb splice variant” (priority 1996, published 2002).

Assays:
[1] = intracerebroventricular injection; Presse, F et al Neuroscience 1996
[2] = injection into lateral ventricles of rats

Substance: H-Asp-Phe-Asp-Met-Leu-Arg-Cys-Met-Leu-Gly-Arg-Val-Tyr-Arg-Pro-Cys-Trp-Gln-Val-OH (H-DFDMLRCMLGRVYRPCWQV-OH; cysteine pairing not given here) [MCH]
- feeding [1]: inhibit feeding
- food consumption [2]: increased food consumption
